Test results taken from patent US20020040018A1, “Subtype selective melatonergics” (priority 2000, published 2002).

What was measured:
mice [1] = test: Maximum electroshock (MES) seizure test; format: in vivo; conditions: i.p. 30 min before MES
Procedure: The in vivo activity of CGX-031-120 is analyzed using the maximum electroshock (MES) test as described by Syinyard et al. (1952) and Woodbury et al. (1952). In the MES procedure, a tonic seizure is produced in mice (17-26 g) by the delivery of a 50 milliamps current through corneal electrodes for 0.2 sec. Before testing, the animals are allowed food and water ad libitum. Compounds are injected i.p. 30 min before the MES. Reference compounds (such as phenytoin, carbamazepine, phenobarbital, and valproic acid) are tested at the peak of activity and at the dose range reported in the literature. Several mice are used per group. In this test anticonvulsive activity is indicated by the abolition of the hind limb tonic extension.

mice [2] = test: Acute pain (tail-flick); format: in vivo; conditions: intrathecal
Procedure: Acute pain (tail-flick). CGX-031-120 or saline is administered intrathecally (i.t.) according to the method of Hylden and Wilcox (1980) in a constant volume of 5 μl. Mice are gently wrapped in a towel with the tail exposed. At various time-points following the i.t. injection, the tail is dipped in a water bath maintained at 54 C. and the time to a vigorous tail withdrawal is recorded. If there is no withdrawal by 8 seconds, the tail is removed to avoid tissue damage.

For `CCC(=O)NCCc1c2n(c3ccc(OC)cc13)Cc1ccccc1-2` [CGX-031-120, N-propanol-2-(2-methoxy-6H-isoindolo-[2,1a]-indol-11-yl)-ethanamine], the “anti-convulsant activity in the MES test” value (mice [1]) was “found to have anti-convulsant activity” and the “response latency in the tail flick model of acute pain” value (mice [2]) was “reduces the response latency”.
